# Assays:
# Mycoplasma gallisepticum = test: Effect of oral administration on chicken inoculated with Mycoplasma gallisepticum; type: in vivo; conditions: for Chickens developing disease in air sac (naked eye observation) / No. of dead chickens: 5 tested chickens
# Protocol: Mycoplasma gallisepticum cells collected from chickens having respiratory Mycoplasma infection were cultured for 3 days in a Frey liquid media for Mycoplasma. 0.2 ml of this culture broth was injected into the trachea of chickens of an average body weight of 80 g using a 1 ml disposable injection needle. Beginning from the next day following the inoculation, feeds to which Compound (1) had been added in the amount of 100 ppm, 75 ppm, or 50 ppm were freely given to the chickens for 5 days. Following the administration of Compound (1) the chickens were given feed containing no drug for a further 5 days. The surviving chickens were sacrificed and dissected. After examination of the degree of disease in the air sac, Mycoplasma gallisepticum in the infraorbital sinus, trachea, lung, and air sac were determined. […] TABLE 6 […]
# [1] = test system: Salmonella typhimurium 595; test: in vitro antimicrobial activity (MIC), agar dilution, Part 1; type: cell-based; conditions: Salmonella enterica; Salmonella typhimurium 595, Pig; Mueller Hinton agar, 37°C, 18-24 hours
# Protocol: (§1) Test microorganisms listed in Table 2 were cultured overnight in heart infusion nutrient broth (produced by Eiken Chemical Co., Ltd.). Culture broth containing about 10⁸/ml cells was diluted to a volume of 100 times. An aliquot (about 0.05 ml) of the diluted broth was inoculated onto a Mueller Hinton agar plate (produced by Eiken Chemical Co., Ltd.) to which Compound No. 1 was added in a prescribed concentration. […]
# [2] = test system: Salmonella typhimurium 101; test: as above; type: cell-based; conditions: Salmonella enterica; Salmonella typhimurium 101, Chicken; Mueller Hinton agar, 37°C, 18-24 hours
# Protocol: as §1
# [3] = test system: Bordetella bronchiaseptica AR3; test: as above; type: cell-based; conditions: Bordetella bronchiaseptica AR3, Pig; Mueller Hinton agar, 37°C, 18-24 hours
# Protocol: as §1
# Escherichia coli 15-4 = test: as above; type: cell-based; conditions: 154; Escherichia coli 15-4, Cow; Mueller Hinton agar, 37°C, 18-24 hours
# Protocol: as §1
# Escherichia coli 164 = test: as above; type: cell-based; conditions: Escherichia coli 164, Pig; Mueller Hinton agar, 37°C, 18-24 hours
# Protocol: as §1
# [4] = test system: Staphylococcus aureus Aichi 2; test: as above; type: cell-based; conditions: AICHI2; Staphylococcus aureus Aichi 2, Chicken; Mueller Hinton agar, 37°C, 18-24 hours
# Protocol: as §1
# Escherichia coli 442 = test: as above; type: cell-based; conditions: Escherichia coli 442, Chicken; Mueller Hinton agar, 37°C, 18-24 hours
# Protocol: as §1
# Escherichia coli = test: Effect of oral administration on chicken inoculated with Escherichia coli; type: in vivo; conditions: for Chickens developing disease in air sac (naked eye observation) / No. of dead chickens: 5 tested chickens
# Protocol: Escherichia coli cells collected from infected chicken were cultured overnight in a trypticase soy broth (BBL). 0.2 ml of this culture broth was injected into the trachea of chickens of average body weight of 80 g using a 1 ml disposable injection needle. Beginning 2 hours after the inoculation, feeds to which Compound (1) had been added in the amount of 50 ppm, 25 ppm, or 12.5 ppm were freely given to the chickens for 5 days. Following the administration of Compound (1) the chickens were given feed with no addition of drug for 5 days. The surviving chickens were sacrificed and dissected. After examination of the degree of disease in the air sac, Escherichia coli in the trachea, lung, and air sac were quantitatively determined. […]
# [5] = test system: Staphylococcus aureus Yamaguchi 6; test: in vitro antimicrobial activity (MIC), agar dilution, Part 2; type: cell-based; conditions: Staphylococcus aureus Yamaguchi 6, Chicken; read-out: MIC
# Protocol: as §1
# (§2) MIC of Compounds (1)-(8) against various pathogenic bacteria derived from animals was determined in the same manner as in Example 1.
# [6] = test system: Salmonella typhimurium 103; test: as above; type: cell-based; conditions: Salmonella enterica; Salmonella typhimurium 103, Chicken; read-out: MIC
# Protocol: as §1, §2
# Escherichia coli 881 = test: as above; type: cell-based; conditions: Escherichia coli, 881, Escherichia coli 881, Pig; read-out: MIC
# Protocol: as §1, §2
# Escherichia coli S6W = test: as above; type: cell-based; conditions: Escherichia coli, S6W, Escherichia coli S6W, Chicken; read-out: MIC
# Protocol: as §1, §2
# [7] = test system: Bordetella bronchiaseptica OKM-1; test: as above; type: cell-based; conditions: Bordetella, OKM1, Bordetella bronchiaseptica OKM-1, Pig; read-out: MIC
# Protocol: as §1, §2
# [8] = test system: Salmonella typhimurium 569; test: as above; type: cell-based; conditions: Salmonella enterica, TYPHIMURIUM, Salmonella typhimurium 569, Pig; read-out: MIC
# Protocol: as §1, §2
# Escherichia coli 139 = test: as above; type: cell-based; conditions: Escherichia coli 139, Cow; read-out: MIC
# Protocol: as §1, §2
# [9] = test system: pathogenic bacteria derived from animals; test: in vitro antimicrobial activity, Part 1, overall comparison; type: cell-based; conditions: summary of Table 2
# Protocol: as §1
# [10] = test system: Mycoplasma gallisepticum Strain T-2; test: in vitro antimicrobial activity (MIC) in Frey liquid medium; type: cell-based; conditions: Mycoplasmoides gallisepticum; Mycoplasma gallisepticum Strain T-2, from chicken; Frey liquid medium, 37°C, 3-5 days; read-out: MIC
# Protocol: (§3) Various test strains of Mycoplasma gallisepticum derived from chicken were cultured in a Frey liquid medium for Mycoplasma for 3 days. The culture broth containing about 10⁸/ml cells was diluted to a volume of 100 times. The diluted broth was inoculated into Frey liquid media for Mycoplasma to which the compounds of this invention were added at prescribed concentrations. The cells were incubated at 37°C for 3-5 days while daily observing the color of the media. Among the culture broths maintaining yellow color at the time when the control to which no test compound was added turned red, the concentration of the broth having the minimum concentration was taken as the MIC of the compound.
# [11] = test system: Mycoplasma gallisepticum Strain 2004; test: as above; type: cell-based; conditions: Mycoplasmoides gallisepticum, STRAIN2004; Mycoplasma gallisepticum Strain 2004, from chicken; Frey liquid medium, 37°C, 3-5 days; read-out: MIC
# Protocol: as §3
# [12] = test system: Mycoplasma gallisepticum Strain 2012; test: as above; type: cell-based; conditions: Mycoplasmoides gallisepticum, STRAIN2012; Mycoplasma gallisepticum Strain 2012, from chicken; Frey liquid medium, 37°C, 3-5 days; read-out: MIC
# Protocol: as §3
# [13] = test system: Mycoplasma gallisepticum Strain DP-1047; test: as above; type: cell-based; conditions: Mycoplasmoides gallisepticum; Mycoplasma gallisepticum Strain DP-1047, from chicken; Frey liquid medium, 37°C, 3-5 days; read-out: MIC
# Protocol: as §3
# [14] = test system: Mycoplasma gallisepticum Strain T-7; test: as above; type: cell-based; conditions: Mycoplasmoides gallisepticum, Mycoplasma gallisepticum Strain T-7, from chicken, 37°C, 3-5 days
# Protocol: as §3
compound,measurement,setting,value
"C[C@H]1COc2c(N3CCN(C)CC3)c(F)cc3c(=O)c(C(=O)O)cn1c23 [Compound (1), 3S-9-fluoro-2,3-dihydro-3-methyl-10-(4-methyl-1-piperazinyl)-7-oxo-7H-pyrido[1,2,3-de] [1,4]benzoxazine-6-carboxylic acid hemihydrate]",Mycoplasma gallisepticum collected in Air sac,Mycoplasma gallisepticum; 50 ppm in feed for 5 days,2.32 Logarithmic number of collected cells per 1 g of tissue
same,Mycoplasma gallisepticum collected in Infraorbital sinus,Mycoplasma gallisepticum; 50 ppm in feed for 5 days,0/5
same,Mycoplasma gallisepticum collected in Lung,Mycoplasma gallisepticum; 50 ppm in feed for 5 days,0 Logarithmic number of collected cells per 1 g of tissue
same,Mycoplasma gallisepticum collected in Trachea,Mycoplasma gallisepticum; 50 ppm in feed for 5 days,0 Logarithmic number of collected cells per 1 g of tissue
same,Chickens developing disease in air sac (naked eye observation),Mycoplasma gallisepticum; 50 ppm in feed for 5 days,0
same,No. of dead chickens,Mycoplasma gallisepticum; 50 ppm in feed for 5 days,0
same,Mycoplasma gallisepticum collected in Air sac,Mycoplasma gallisepticum; 75 ppm in feed for 5 days,0 Logarithmic number of collected cells per 1 g of tissue
same,Mycoplasma gallisepticum collected in Infraorbital sinus,Mycoplasma gallisepticum; 75 ppm in feed for 5 days,0/5
same,Mycoplasma gallisepticum collected in Lung,Mycoplasma gallisepticum; 75 ppm in feed for 5 days,0 Logarithmic number of collected cells per 1 g of tissue
same,Mycoplasma gallisepticum collected in Trachea,Mycoplasma gallisepticum; 75 ppm in feed for 5 days,0 Logarithmic number of collected cells per 1 g of tissue
same,Chickens developing disease in air sac (naked eye observation),Mycoplasma gallisepticum; 75 ppm in feed for 5 days,0
same,No. of dead chickens,Mycoplasma gallisepticum; 75 ppm in feed for 5 days,0
same,Mycoplasma gallisepticum collected in Air sac,Mycoplasma gallisepticum; 100 ppm in feed for 5 days,0 Logarithmic number of collected cells per 1 g of tissue
same,Mycoplasma gallisepticum collected in Infraorbital sinus,Mycoplasma gallisepticum; 100 ppm in feed for 5 days,0/5
same,Mycoplasma gallisepticum collected in Lung,Mycoplasma gallisepticum; 100 ppm in feed for 5 days,0 Logarithmic number of collected cells per 1 g of tissue
same,Mycoplasma gallisepticum collected in Trachea,Mycoplasma gallisepticum; 100 ppm in feed for 5 days,0 Logarithmic number of collected cells per 1 g of tissue
same,Chickens developing disease in air sac (naked eye observation),Mycoplasma gallisepticum; 100 ppm in feed for 5 days,0
same,No. of dead chickens,Mycoplasma gallisepticum; 100 ppm in feed for 5 days,0
same,MIC,[1],0.05 mg/L
same,MIC,[2],0.025 mg/L
same,MIC,[3],0.2 mg/L
same,MIC,Escherichia coli 15-4,0.05 mg/L
same,MIC,Escherichia coli 164,0.05 mg/L
same,MIC,[4],0.1 mg/L
same,MIC,Escherichia coli 442,0.025 mg/L
same,Escherichia coli collected in Air sac,Escherichia coli; 12.5 ppm in feed for 5 days,3.99 Logarithmic number of collected cells per 1 g of tissue
same,Escherichia coli collected in Lung,Escherichia coli; 12.5 ppm in feed for 5 days,2.78 Logarithmic number of collected cells per 1 g of tissue
same,Escherichia coli collected in Trachea,Escherichia coli; 12.5 ppm in feed for 5 days,2.78 Logarithmic number of collected cells per 1 g of tissue
same,Chickens developing disease in air sac (naked eye observation),Escherichia coli; 12.5 ppm in feed for 5 days,3
same,No. of dead chickens,Escherichia coli; 12.5 ppm in feed for 5 days,1
same,Escherichia coli collected in Air sac,Escherichia coli; 25 ppm in feed for 5 days,0 Logarithmic number of collected cells per 1 g of tissue
same,Escherichia coli collected in Lung,Escherichia coli; 25 ppm in feed for 5 days,0 Logarithmic number of collected cells per 1 g of tissue
same,Escherichia coli collected in Trachea,Escherichia coli; 25 ppm in feed for 5 days,0 Logarithmic number of collected cells per 1 g of tissue
same,Chickens developing disease in air sac (naked eye observation),Escherichia coli; 25 ppm in feed for 5 days,1
same,No. of dead chickens,Escherichia coli; 25 ppm in feed for 5 days,0
same,Escherichia coli collected in Air sac,Escherichia coli; 50 ppm in feed for 5 days,0 Logarithmic number of collected cells per 1 g of tissue
same,Escherichia coli collected in Lung,Escherichia coli; 50 ppm in feed for 5 days,0 Logarithmic number of collected cells per 1 g of tissue
same,Escherichia coli collected in Trachea,Escherichia coli; 50 ppm in feed for 5 days,0 Logarithmic number of collected cells per 1 g of tissue
same,Chickens developing disease in air sac (naked eye observation),Escherichia coli; 50 ppm in feed for 5 days,0
same,No. of dead chickens,Escherichia coli; 50 ppm in feed for 5 days,0
same,MIC,[5],0.05 mg/L
same,MIC,[6],0.05 mg/L
same,MIC,Escherichia coli 881,0.05 mg/L
same,MIC,Escherichia coli S6W,0.025 mg/L
same,MIC,[7],0.2 mg/L
same,MIC,[8],0.05 mg/L
same,MIC,Escherichia coli 139,0.05 mg/L
same,antimicrobial activities compared with Ofloxacin,[9],higher antimicrobial activities than its known racemic isomer (Ofloxacin)
same,MIC,[10],0.05 mg/L
same,MIC,[11],0.0125 mg/L
same,MIC,[12],0.025 mg/L
same,MIC,[13],0.025 mg/L
same,MIC,[14],0.05 mg/L

# Source: EP0354453A2, “Antimicrobial agent for animals” (priority 1988, dated 1990)
